Data as given in patent US6346261B1, “Pesticidal composition” (priority 1997, dated 2002).

Test system: eggs of cat flea
Assay: Hatching inhibition of cat flea eggs on treated filter paper (Test Example 1)
Type: in vivo, cat flea (Ctenocephalides felis)
Conditions: 26° C., 95% humidity, 5 days, corrected against non-treated hatching ratio 92.4%
Procedure: Each of pyriproxyfen, 1S,3S,4S,6R-carane-3,4-diol and a mixture thereof was diluted with acetone, added dropwise to a filter paper (3.8 cm in diameter) and dried. About 20 eggs (within 24 hours after laid) of cat flea were set on the filter paper prepared above. The filter paper was held in a plastic plate, kept 26° C. of temperature and 95% of humidity for 5 days and hatching was observed.
Hatching inhibition ratio (%) in Table represents a corrected inhibition ratio (%) which is calculated by the following:
Hatching inhibition ratio (%)={(C−T)/C}×100
wherein C is a hatching ratio (92.4%) of flea at non-treated area and T is a hatching ratio of flea at treated area.
In the table, PY means pyriproxyfen and CA means 1S,3S,4S,6R-carane-3,4-diol. The treated dosage unit is mg/m^2.

| Compound | Hatching inhibition ratio (%) (treated dosage 10 mg/m^2 on filter paper) | Hatching inhibition ratio (%) (treated dosage 100 mg/m^2 on filter paper) | Hatching inhibition ratio (%) (treated dosage 0.1 mg/m^2 on filter paper) |
| --- | --- | --- | --- |
| CC1(C)[C@@H]2C[C@H](O)[C@@](C)(O)C[C@@H]21 [CA, 1S,3S,4S,6R-carane-3,4-diol] | 3.1% | 12.1% | – |
| CC(COc1ccc(Oc2ccccc2)cc1)Oc1ccccn1 (stereo not drawn) [PY, pyriproxyfen] | – | – | 58.1% |
